Marks after values point to notes of the source that are not given here.
Test system: patients with relapsed and/or refractory lymphoma or MM
Assay: Safety: adverse events graded by NCI CTCAE version 3.0
Conditions: for Patients with serious AEs (SAEs): eight patients
[1] = Schedule B, n=17, high-level term

NS(=O)(=O)OC[C@@H]1C[C@@H](n2ccc3c(N[C@H]4CCc5ccccc54)ncnc32)C[C@@H]1O [pevonedistat]
11%: Peripheral neuropathy rate (overall, both schedules)
30%: Patients with serious AEs (SAEs) (schedule A)
6 (35) n (%): Chills, All grades (Schedule B, n=17)
0 n (%): Abdominal discomfort, Grade ≥3 (Schedule B, n=17) | Asthenia, Grade ≥3 (Schedule B, n=17) | Back pain, Grade ≥3 (Schedule B, n=17) | Blood alkaline phosphatase increased, Grade ≥3 (Schedule B, n=17) | Blood creatinine increased, All grades (Schedule B, n=17) | Blood creatinine increased, Grade ≥3 (Schedule B, n=17) | Chills, Grade ≥3 (Schedule B, n=17) | Constipation, Grade ≥3 (Schedule B, n=17) | Cough, Grade ≥3 (Schedule B, n=17) | Decreased appetite, Grade ≥3 (Schedule B, n=17) | Diarrhea, Grade ≥3 (Schedule B, n=17) | Dizziness, Grade ≥3 (Schedule B, n=17) | Dyspepsia, Grade ≥3 (Schedule B, n=17) | Dyspnea exertional, Grade ≥3 (Schedule B, n=17) | Headache, Grade ≥3 (Schedule B, n=17) | Hypercalcemia, Grade ≥3 (Schedule B, n=17) | Hyperkalemia, All grades (Schedule B, n=17) | Hyperkalemia, Grade ≥3 (Schedule B, n=17) | Hypomagnesemia, Grade ≥3 (Schedule B, n=17) | Insomnia, Grade ≥3 (Schedule B, n=17) | Myalgia, Grade ≥3 (Schedule B, n=17) | Nausea, Grade ≥3 (Schedule B, n=17) | Pain in extremity, Grade ≥3 (Schedule B, n=17) | Paresthesia, Grade ≥3 (Schedule B, n=17) | Peripheral edema, Grade ≥3 (Schedule B, n=17) | Productive cough, Grade ≥3 (Schedule B, n=17) | Sinus tachycardia, Grade ≥3 (Schedule B, n=17) | Vision blurred, All grades (Schedule B, n=17) | Vision blurred, Grade ≥3 (Schedule B, n=17) | Vomiting, Grade ≥3 (Schedule B, n=17) | Weight decreased, Grade ≥3 (Schedule B, n=17) | Peripheral neuropathies NEC, Grade ≥3 [1]
1 (6) ^a n (%): Thrombocytopenia, Grade ≥3 (Schedule B, n=17, 1 DLT)
5 (29) n (%): Constipation, All grades (Schedule B, n=17) | Cough, All grades (Schedule B, n=17) | Hyperbilirubinemia, All grades (Schedule B, n=17) | Pain in extremity, All grades (Schedule B, n=17) | Pain, All grades (Schedule B, n=17) | Paresthesia, All grades (Schedule B, n=17)
19%: Grade ≥3 anemia (schedule A)
no treatment-related deaths: Treatment-related deaths (both schedules)
1 (6) n (%): Anemia, Grade ≥3 (Schedule B, n=17) | Blood alkaline phosphatase increased, All grades (Schedule B, n=17) | Dehydration, Grade ≥3 (Schedule B, n=17) | Dyspnea, Grade ≥3 (Schedule B, n=17) | Fatigue, Grade ≥3 (Schedule B, n=17) | Hyperbilirubinemia, Grade ≥3 (Schedule B, n=17) | Hypercalcemia, All grades (Schedule B, n=17) | Hypomagnesemia, All grades (Schedule B, n=17) | Hypophosphatemia, All grades (Schedule B, n=17) | Hypophosphatemia, Grade ≥3 (Schedule B, n=17) | Muscle spasms, Grade ≥3 (Schedule B, n=17) | Pain, Grade ≥3 (Schedule B, n=17) | Pyrexia, Grade ≥3 (Schedule B, n=17) | Upper respiratory tract infection, Grade ≥3 (Schedule B, n=17)
four: Patients with SAEs considered related to pevonedistat (schedule A)
17 (100) n (%): Any AE, All grades (Schedule B, n=17)
8 (47) n (%): Diarrhea, All grades (Schedule B, n=17) | Dizziness, All grades (Schedule B, n=17) | Pyrexia, All grades (Schedule B, n=17)
12%: Grade ≥3 neutropenia (schedule B) | Grade ≥3 pneumonia (schedule B)
4 (24) n (%): Back pain, All grades (Schedule B, n=17) | Dyspnea, All grades (Schedule B, n=17) | Insomnia, All grades (Schedule B, n=17)
9 (53) n (%): Headache, All grades (Schedule B, n=17)
47%: Patients with serious AEs (SAEs) (schedule B)
13 (76) n (%): Nausea, All grades (Schedule B, n=17)
10 (59) n (%): Decreased appetite, All grades (Schedule B, n=17) | Muscle spasms, All grades (Schedule B, n=17) | Myalgia, All grades (Schedule B, n=17) | Vomiting, All grades (Schedule B, n=17)
2 (12) n (%): Neutropenia, All grades (Schedule B, n=17) | Neutropenia, Grade ≥3 (Schedule B, n=17) | Pneumonia, Grade ≥3 (Schedule B, n=17) | Peripheral neuropathies NEC, All grades [1]
12 (71) n (%): Any AE, Grade ≥3 (Schedule B, n=17) | Fatigue, All grades (Schedule B, n=17)
1 n: Patients who discontinued due to occurrence of an AE (schedule B)
2 n: Patients who discontinued due to occurrence of an AE (schedule A)
3 (18) n (%): Anemia, All grades (Schedule B, n=17) | Asthenia, All grades (Schedule B, n=17) | Dehydration, All grades (Schedule B, n=17) | Dyspepsia, All grades (Schedule B, n=17) | Dyspnea exertional, All grades (Schedule B, n=17) | Peripheral edema, All grades (Schedule B, n=17) | Pneumonia, All grades (Schedule B, n=17) | Productive cough, All grades (Schedule B, n=17) | Sinus tachycardia, All grades (Schedule B, n=17) | Thrombocytopenia, All grades (Schedule B, n=17) | Upper respiratory tract infection, All grades (Schedule B, n=17) | Weight decreased, All grades (Schedule B, n=17)

Reference: PMC5694347 (Clinical cancer research : an official journal of the …, 2015)
